The values that follow come from PMC11820055, “Human Pharmacokinetic Profiling and Comparative Analysis of Mangiferin and Its Monosodium Derivative from Mangifera indica Extracts Using UHPLC-MS/MS with ^1H NMR and MALDI-TOF Confirmation” (Molecules, 2025).

As a reminder, the aqueous solubility is the dissolved amount per volume that the medium holds. The Cmax is the maximum level reached in the sampled fluid or tissue. The term Tmax denotes the time from dosing to the highest level.

Data set [1] can be described thus: Stability of mangiferin in human plasma QC samples. Format: in vitro ADME. The following applies: for Stability (%, Mean ± RSD) Autosampler / Stability (%, Mean ± RSD) Room Temp. / Stability (%, Mean ± RSD) Freeze–Thaw: human plasma QC, n = 6; for Stability (%, Mean ± RSD) Autosampler: autosampler 4 h at 12 °C; for Stability (%, Mean ± RSD) Room Temp.: room temperature for 4 h; for Stability (%, Mean ± RSD) Freeze–Thaw: three cycles of freezing (−80 °C) and thawing (20 °C). As to the method: Quality control (QC) samples were prepared in the same manner and evaluated at low, medium, and high concentrations: 50, 500, and 1000 ng/mL. Blank plasma samples were also included in the injection series to account for any potential carryover. The stability of mangiferin in human plasma was evaluated by analyzing the same three levels of QC samples (n = 6) after storage at room temperature for 4 h, in the autosampler for 4 h at 12 °C, and after three cycles of freezing (−80 °C) and thawing (20 °C).

Details of data set [2]: method as in earlier work. The settings on record: pure mangiferin; cited from earlier work.
On the set-up of data set [3]: method as in PMID 26434292. The settings on record: human plasma, mangiferin >90% purity, cited from earlier work.
For data set [4] the following is noted: cited from earlier work.
Details of data set [5]: method as in doi:10.1155/2019/9272710. The following applies: male Sprague Dawley rats; cited from earlier work.
Data set [6] deals with rats. The settings on record: dose of 400 mg of the purified salt; cited from earlier work.
Data set [7] deals with mice. The settings on record: cited from earlier work.

Values after ≈ are worked out from the molar mass of the structure shown. Counter-ions that a name gives are not always drawn. Like-named read-outs stand apart in the source and are kept apart here.

As to `O=c1c2cc(O)c(O)cc2oc2cc(O)c([C@@H]3O[C@H](CO)[C@@H](O)[C@H](O)[C@H]3O)c(O)c12` [Mangiferin], in data set [1] (human plasma QC samples), the “stability throughout the analytical process” value is on record as “stable”. The “Stability (%, Mean ± RSD) Autosampler” value in data set [1] (1.000 ng/mL as printed) came out at 101.63 ± 8.50%; in data set [1] (50 ng/mL), 109.92 ± 2.77%; in data set [1] (500 ng/mL), 102.02 ± 8.81%. For the same molecule, the “Stability (%, Mean ± RSD) Room Temp.” value in data set [1] (1.000 ng/mL as printed) is on record as 101.75 ± 8.11%; in data set [1] (50 ng/mL) it was 103.10 ± 3.66%; in data set [1] (500 ng/mL), 101.27 ± 9.08%. For the same molecule, the “Stability (%, Mean ± RSD) Freeze–Thaw” value in data set [1] (1.000 ng/mL as printed) was 102.64 ± 1.05%; in data set [1] (50 ng/mL), 108.60 ± 3.87%; in data set [1] (500 ng/mL), 101.68 ± 0.91%. Moreover, the aqueous solubility in data set [2] was 0.111 mg/mL (≈ 263 µM). Moreover, the highest concentration (Cmax) in data set [3] (100 mg oral dose) was 0.01994 µg/mL; in data set [3] (900 mg oral dose) it was 0.03864 µg/mL. For the same molecule, the “increase of exposure on inhibition of the transporter P-gp” value in data set [4] (pure mangiferin) was “approximately threefold”.

As to `O=c1c2cc(O)c(O)cc2oc2cc(O)c([C@@H]3O[C@H](CO)[C@@H](O)[C@H](O)[C@H]3O)c(O)c12` [mangiferin monosodium salt, Monosodium mangiferin], in data set [5], the “relative bioavailability of the salt vs pure mangiferin based on AUC0–∞” value was 5.7 times. Also, the safety in rats entry in data set [6] is reported as “generally safe”. In addition, the “maximum tolerated dose (MTD)” value in data set [7] is recorded as 12,000 mg/kg.

For `O=c1c2cc(O)c(O)cc2oc2cc(O)cc(O)c12` [norathyriol], in data set [4] (in vivo), the Tmax is recorded as about 15 h and the “absorption of norathyriol as fraction of the mangiferin dose” value was “approximately 0.1%”.
